One assay deals with T1, SMN_W102A (Homo sapiens, UniProt Q16637, W102A).
T1 construct: SMN (aa 82–147); His (N, cleaved yes); made in house; host or cells: E. coli BL21 (DE3) Codon plus RIL
The assay is described as follows: ITC binding to SMN Tudor mutant W102A. As to conditions: Fig. 3d. From the text:
(§1) The coding DNA fragments of following Tudor domains were cloned into pET28-MHL vector: SMN (aa 82–147), UHRF1 (aa 126–285), SMNDC1 (aa 53–130), TDRD3 (aa 554–611), SND1 (aa 650–910), TDRD2 (aa 327–420), FXR1 (aa 2–132), PHF1 (aa 28–87), SGF29 (aa 115–293), JMJD2A (aa 897–1101), 53BP1 (aa 1483–1606), SETDB1 (aa 190–410), LBR (aa 1–67), ZGPAT (aa 120–271). The coding regions of chromodomain of CBX7 (aa 8–62), PWWP domain of DNMT3A (aa 275–417), WD40 repeats of WDR5 (aa 24–334) and CW domain of ZCWPW2 (aa 21–78) were also subcloned into pET28-MHL vector to generate N-terminally His-tagged fusion protein. The MBT repeats of L3MBTL1 (aa 200–522) and L3MBTL2 (aa 170–625) were subcloned into pET28GST-LIC vector to generate N-terminally GST-His-tagged fusion protein. All the plasmids were generated by ligase independent cloning (Vazyme Biotech, C112 or ABclonal Technology, RK21020). […] The molecular weight of all protein samples was measured by mass spectrometry.
(§2) For the ITC measurement, the concentrated proteins were diluted into 20 mM Tris-HCl, pH 7.5, 150 mM NaCl (ITC buffer); the lyophilized compounds were dissolved in the same buffer, and the pH value was adjusted by adding 2 M NaOH or 2 M HCl. […] Compound concentrations were calculated from the mass and the volume of the solvent. […]

For another assay, the target named is T2, SETDB1 (Homo sapiens, UniProt Q15047).
T2 construct: SETDB1 (aa 190–410); His (N, cleaved yes); made in house; host or cells: E. coli BL21 (DE3) Codon plus RIL
Nature of the assay: ITC binding to SETDB1. As to conditions: Fig. 1c.
Description: as §1, §2

In a further assay the target is T3, SMN_Y127F (Homo sapiens, UniProt Q16637, Y127F).
T3 construct: cloned into pET28-MHL vector: SMN (aa 82–147); His (N, cleaved yes); made in house; host or cells: E. coli BL21 (DE3) Codon plus RIL
T3 sequence (Q16637 82-147 Y127F): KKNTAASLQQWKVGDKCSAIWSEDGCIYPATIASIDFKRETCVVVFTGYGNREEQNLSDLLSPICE
Nature of the assay: ITC binding to SMN Tudor mutant Y127F. As to conditions: Fig. 3d.
Description: as §1, §2

The target in a further assay is T4, SMN (Homo sapiens, UniProt Q16637).
T4 construct: endogenous in cells; host or cells: U2OS
T4 sequence (Q16637 whole entry): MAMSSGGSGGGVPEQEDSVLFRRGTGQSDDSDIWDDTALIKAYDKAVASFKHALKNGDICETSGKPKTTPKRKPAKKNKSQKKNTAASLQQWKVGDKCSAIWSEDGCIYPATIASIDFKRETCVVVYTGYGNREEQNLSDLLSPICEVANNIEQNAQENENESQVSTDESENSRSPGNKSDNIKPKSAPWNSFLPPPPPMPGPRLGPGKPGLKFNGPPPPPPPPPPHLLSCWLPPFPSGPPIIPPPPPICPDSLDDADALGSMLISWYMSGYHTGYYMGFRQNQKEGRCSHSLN
The assay is described as follows: Biotin-Cmpd 1 pulldown from U2OS cell lysates and western blotting, SMN. Type of assay: binding. As to conditions: U2OS cell lysate, 200 μM biotin-free competitor, 20 μM biotin-Cmpd 1. The protocol: U2OS cells were lysed in RIPA buffer (140 mM NaCl, 10 mM Tris-HCl, pH 7.6, 1% Triton, 0.1% sodium deoxycholate, 1 mM EDTA) containing protease inhibitors (Roche, 05892791001). The cell lysate was incubated with 20 μM biotin-Cmpd 1 overnight at 4 °C, then 30 μL streptavidin beads (Thermo Fisher, 20353) was added and incubated at 4 °C for 1 h. The beads were then washed with RIPA buffer for 3 times, 10 min/time and loading buffer was added and boiled for 5 min for elution. The eluted samples were separated by SDS-PAGE for western blotting (SMN monoclonal antibody, BD Transduction Laboratories, 610646, clone No. 8, dilution of 1:1000; TDRD3 rabbit monoclonal antibody, Cell signaling, 5492, clone No. 5492, dilution of 1:1000; SND1 polyclonal antibody, Bethyl, A302-883A, dilution of 1:2000; RFP polyclonal antibody, Abcam, ab62341, dilution of 1:1000; GFP monoclonal antibody, Santa Cruz Biotechnology, sc-9996, dilution of 1:1000; Streptavidin-Horseradish Peroxidase (HRP), Invitrogen, SA10001, dilution of 1:5000) as previously described[52],[53]. For the competition analysis, 200 μM biotin-free compound 1 or compound 15 was added at the same time when the biotin-Cmpd 1 was incubated with the cell lysates.
Background: In western blotting, separated proteins are transferred to a membrane and probed.

In assay [1] the test system is UHRF1_TTD R296-binding pocket mutants. Nature of the assay: ITC binding to UHRF1 TTD R296-binding pocket mutants. As to conditions: Supplementary Fig. 9e.
Description: as §1, §2

For another assay, the target named is T5, SGF29 (Homo sapiens, UniProt Q96ES7).
T5 construct: SGF29 (aa 115–293); His (N, cleaved yes); made in house; host or cells: E. coli BL21 (DE3) Codon plus RIL
T5 sequence (Q96ES7 115-293): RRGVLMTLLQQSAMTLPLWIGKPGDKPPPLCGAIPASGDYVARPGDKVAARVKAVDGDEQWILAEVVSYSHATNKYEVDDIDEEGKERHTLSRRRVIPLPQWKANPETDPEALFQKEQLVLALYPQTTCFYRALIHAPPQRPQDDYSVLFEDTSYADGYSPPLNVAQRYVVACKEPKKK
The assay is described as follows: ITC binding to SGF29. As to conditions: Fig. 1c.
Description: as §1, §2

In a further assay the target is T6, SND1_F740W (Homo sapiens, UniProt Q7KZF4, F740W).
T6 construct: SND1 (aa 650–910); His (N, cleaved yes); made in house; host or cells: E. coli BL21 (DE3) Codon plus RIL
T6 sequence (Q7KZF4 650-910 F740W): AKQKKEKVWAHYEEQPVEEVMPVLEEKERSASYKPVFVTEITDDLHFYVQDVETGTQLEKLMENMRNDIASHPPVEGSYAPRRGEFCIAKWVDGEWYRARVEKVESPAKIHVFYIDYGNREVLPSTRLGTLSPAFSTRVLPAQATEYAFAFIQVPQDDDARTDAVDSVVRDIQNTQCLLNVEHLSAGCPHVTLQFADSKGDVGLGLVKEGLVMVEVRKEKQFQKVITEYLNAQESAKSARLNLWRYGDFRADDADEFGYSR
Nature of the assay: ITC binding to SND1 mutant F740W. The conditions noted are these: Supplementary Fig. 11c, iTC-200; read-out: Kd, ITC binding curve, SND1_F740W.
Description: as §1, §2

T1 sequence (Q16637 82-147 W102A): as the sequence (Q16637 82-147 Y127F) above, with W21A, F46Y counted along it

With `Cn1c2c(c(=N)c3c1CCC3)CCC2` [Compound 1, 4-methyl-2,3,4,5,6,7-hexahydrodicyclopenta[b,e]pyridin-8(1H)-imine], the Kd is greater than 244 µM on SMN_W102A; greater than 244 µM on SETDB1; 4 ± 0.2 µM at SMN_Y127F; greater than 244 µM on SGF29; 38 ± 8 µM at SND1_F740W. In addition, on SMN, the “competition of the pulldown of SMN by biotin-Cmpd 1” value was “competed out”. In addition, in assay [1], the “binding to UHRF1_TTD R296-binding pocket mutants” value is reported as “totally disrupted”.

As a reminder, the Kd is the constant that tells how readily two partners part at equilibrium.

The values are drawn from article PMC9481570, “A small molecule antagonist of SMN disrupts the interaction between SMN and RNAP II” (Nature Communications, 2022).
